Key:
Format in all cases: in vivo
Rabbit ocular hyperemia = details: Conc. 0.1 g/100 mL
Dog ocular hyperemia = details: Conc. 0.1 g/100 mL
[1] = Monkey intraocular pressure (Max. ΔIOP); details: Primates, Conc. 0.1 g/100 mL
[2] = Dog intraocular pressure (Max. ΔIOP); details: Canis lupus familiaris, Conc. 0.1 g/100 mL

RABBIT Max. hyperemia (Rabbit ocular hyperemia): 0.25
DOG Max. hpyeremia (Dog ocular hyperemia): 0.6
Structure (SMILES): CCCCCCc1ccc([C@@H]2[C@@H](C/C=C\CCCC(=O)O)[C@H](Cl)C[C@H]2O)cc1 [compound 6]
change in vivo at 1000 µg/mL [1]: 32%
change in vivo at 1000 µg/mL [2]: -43%
